Reference: PubChem BioAssay (NCI)
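Step 1: Grow cells in 96-well plates. Step 2: Expose to compound for 48 hours at 5 concentrations. Step 3: Interpolate endpoints linearly; if unreached, use highest concentration. GI50 = concentration required for 50% inhibition of growth. Definition used: TGI = concentration required for complete inhibition of growth.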

Experiments:
Test in all cases: NCI-60 cell line screen, 48 h
A549 NSCLC = test system: A549 NSCLC
M14 melanoma = test system: M14 melanoma
NCI-H460 lung = test system: NCI-H460 lung
NCI-H522 lung = test system: NCI-H522 lung
OVCAR-8 ovarian = test system: OVCAR-8 ovarian
PC-3 prostate = test system: PC-3 prostate
SF-268 CNS = test system: SF-268 CNS
SF-539 CNS = test system: SF-539 CNS
SW-620 colon = test system: SW-620 colon
T-47D breast = test system: T-47D breast

Row | Structure (SMILES) | TGI (A549 NSCLC) | TGI (M14 melanoma) | TGI (NCI-H460 lung) | TGI (NCI-H522 lung) | TGI (OVCAR-8 ovarian) | TGI (PC-3 prostate) | TGI (SF-268 CNS) | TGI (SF-539 CNS) | TGI (SW-620 colon) | TGI (T-47D breast) | GI50 (A549 NSCLC) | GI50 (M14 melanoma) | GI50 (NCI-H460 lung) | GI50 (NCI-H522 lung) | GI50 (OVCAR-8 ovarian) | GI50 (PC-3 prostate) | GI50 (SF-268 CNS) | GI50 (SF-539 CNS) | GI50 (SW-620 colon) | GI50 (T-47D breast)
1 | O=c1[nH]c(=O)n(C2CC(O)C(CO)O2)cc1Br (stereo not given) | > 100 µM | > 100 µM | > 100 µM | > 100 µM | > 100 µM | > 100 µM | > 100 µM | > 100 µM | > 100 µM | > 100 µM | – | – | – | – | – | – | – | – | – | –
2 | CCSc1nc(N/N=C/c2cccs2)c2cnn(CO)c2n1 | 24.1 µM | 22.9 µM | 18.6 µM | 15.5 µM | 14.9 µM | 21.4 µM | 23.7 µM | 26 µM | 24.2 µM | 18.5 µM | – | – | – | – | – | – | – | – | – | –
3 | O=C(NC1C/C(=N/O)c2c(Br)sc(Br)c21)C(F)(F)F (stereo not given) | 96.9 µM | > 100 µM | 97.2 µM | > 100 µM | 63.2 µM | 45.6 µM | > 100 µM | 38.9 µM | > 100 µM | > 100 µM | – | – | – | – | – | – | – | – | – | –
4 | COc1cc(/C=C/C(=N\NC(N)=S)c2sc(NNC(C)=O)nc2C)ccc1O | > 100 µM | > 100 µM | > 100 µM | > 100 µM | > 100 µM | > 100 µM | > 100 µM | > 100 µM | > 100 µM | > 100 µM | – | – | – | – | – | – | – | – | – | –
5 | CCOC(=O)NN(C(=O)OCC)C(C(=O)c1ccccc1)N(NC(=O)OCC)C(=O)OCC | > 100 µM | > 100 µM | > 100 µM | > 100 µM | > 100 µM | > 100 µM | > 100 µM | > 100 µM | > 100 µM | > 100 µM | – | – | – | – | – | – | – | – | – | –
6 | C/C(=N\NC(N)=S)c1nc2ncccc2[nH]1 | > 100 µM | > 100 µM | > 100 µM | > 100 µM | > 100 µM | > 100 µM | > 100 µM | > 100 µM | > 100 µM | > 100 µM | – | – | – | – | – | – | – | – | – | –
7 | O=C1c2cccnc2-c2nccc3c2c1nc1ccccc13 | 0.739 µM | 0.269 µM | 0.606 µM | 0.281 µM | 1.61 µM | 1.58 µM | 0.834 µM | 0.544 µM | 0.237 µM | 2.08 µM | – | – | – | – | – | – | – | – | – | –
8 | COc1ccc(Nc2nc(N)c(C(=O)c3ccc(Cl)cc3)s2)cc1 | 22.3 µM | > 64.4 µM | 4.62 µM | < 0.01 µM | 15 µM | 6.61 µM | > 67.5 µM | 0.18 µM | > 100 µM | > 100 µM | – | – | – | – | – | – | – | – | – | –
9 | CC(NNC(=O)c1ccncc1)c1cccc(C(F)(F)F)c1 (stereo not given) | > 100 µM | > 100 µM | > 100 µM | > 100 µM | > 100 µM | > 100 µM | > 100 µM | > 100 µM | > 100 µM | > 100 µM | – | – | – | – | – | – | – | – | – | –
10 | Fc1ccc(C(OCCN2CCC3CCC(C2)N3C/C=C/c2cccs2)c2ccc(F)cc2)cc1 (stereo not given) | 24.3 µM | 14.8 µM | 15.4 µM | 17.7 µM | 15.8 µM | 18.7 µM | 24.6 µM | 22.5 µM | 19.1 µM | 15.5 µM | – | – | – | – | – | – | – | – | – | –
11 | COc1cccc(OC)c1NC(=O)C(=O)Nn1c(NNC(=O)c2ccncc2)nc2ccccc2c1=O | > 100 µM | > 100 µM | > 100 µM | > 100 µM | > 100 µM | > 100 µM | > 100 µM | > 100 µM | > 100 µM | > 100 µM | – | – | – | – | – | – | – | – | – | –
12 | CSc1ncc2c(n1)-c1ccccc1OC2 | > 100 µM | > 100 µM | > 100 µM | > 100 µM | > 100 µM | > 100 µM | > 100 µM | > 100 µM | > 100 µM | 62.5 µM | – | – | – | – | – | – | – | – | – | –
13 | CCCCCCCCCCCCOC1C(COCCN2CCCCC2)OC2OC(C)(C)OC21 (stereo not given) | 19.9 µM | 2.99 µM | 3.48 µM | 2.97 µM | 3.41 µM | 3.8 µM | 6.44 µM | 3.18 µM | 3.23 µM | 4.01 µM | – | – | – | – | – | – | – | – | – | –
14 | O=c1[nH]cnc2c1cnn2Cc1cnnn1COCCO | > 100 µM | > 100 µM | > 100 µM | > 100 µM | > 100 µM | > 100 µM | > 100 µM | > 100 µM | > 100 µM | > 100 µM | – | – | – | – | – | – | – | – | – | –
15 | NC1=Nc2ccccc2Sc2cccc(F)c21 | > 100 µM | > 100 µM | > 100 µM | > 100 µM | > 100 µM | > 100 µM | > 100 µM | > 100 µM | > 100 µM | > 100 µM | – | – | – | – | – | – | – | – | – | –
16 | COc1ccc([I+]c2ccc(OC)cc2)cc1 | > 100 µM | > 100 µM | > 100 µM | > 100 µM | > 100 µM | > 100 µM | > 100 µM | > 100 µM | > 100 µM | > 100 µM | 5.14 µM | 13.4 µM | 5.28 µM | 38.3 µM | 3.27 µM | 15.7 µM | 12.6 µM | 11 µM | 6.66 µM | 13.5 µM
17 | COC(=O)c1ccccc1C1CN=NC12Cc1ccc3c(c1C2=O)CCC3 (stereo not given) | > 100 µM | > 100 µM | > 100 µM | 54.7 µM | > 100 µM | > 100 µM | > 100 µM | > 100 µM | > 100 µM | > 100 µM | – | – | – | – | – | – | – | – | – | –
